From patent publication US20080103048A1, “Methods for the production of granular composite pesticidal compositions and the compositions produced thereby” (priority 2006, published 2008) come the findings set out here.

This data set in a line: Solubility of non-cyano containing pyrethroids in non-polar solvents. It is filed as physicochemical. On the procedure:
Specifically, samples were prepared in 4 ounce glass bottles by combining the non-cyano containing pyrethroids Bifenthrin Technical (supplied by FMC Corporation) and Permethrin Technical sold by Gharda USA, Inc with various non-polar solvents at 10%, 25% and 50% rates by mass (total mass of each sample being 40 grams) so that the 10% formulation contained 4 g of the pyrethroid and 36 g solvent; the 25% formulation contained 10 g of the pyrethroid and 30 g solvent; and the 50% formulation contained 20 g of the pyrethroid and 20 g solvent. Each of the resulting solutions was stirred vigorously in the bottles until a clear solution was obtained. The initial temperatures of the solutions in each of bottles was recorded before the bottles were heated on a laboratory hot plate Each of the solutions was stirred constantly while the solution was being heated on the hot plate and the solutions were frequently observed for signs of any visible separation between the solvent and the solute. […] The final temperature of the solutions in each of the bottles was recorded and it was noted that the temperature required to achieve full miscibility of the pyrethroids in the solvents was up to about 80° C.
In the following Table III, each of the non-cyano containing pyrethroids that were tested and each of the non-polar solvents which were employed with such pyrethroids are listed as well as the initial temperature of the solution and the final temperature resulting in full miscibility of the components.

Where [1] appears, read: Canola Oil (Stepsol ROW-W), 10% pyrethroid by mass.
Setting [2] is: Canola Oil (Stepsol ROW-W), 25% pyrethroid by mass.
[3] abbreviates: Canola Oil (Stepsol ROW-W), 50% pyrethroid by mass.
Where [4] appears, read: Polybutene H-7, 10% pyrethroid by mass.
The mark [5] stands for this setting: Polybutene H-7, 25% pyrethroid by mass.
The mark [6] stands for this setting: Polybutene H-7, 50% pyrethroid by mass.
The mark [7] stands for this setting: Polybutene H-8, 10% pyrethroid by mass.
[8] abbreviates: Polybutene H-8, 25% pyrethroid by mass.
Where [9] appears, read: Polybutene H-8, 50% pyrethroid by mass.
Where [10] appears, read: Polybutene L-14, 10% pyrethroid by mass.
Where [11] appears, read: Polybutene L-14, 25% pyrethroid by mass.
Setting [12] is: Polybutene L-14, 50% pyrethroid by mass.
Where [13] appears, read: Polybutene L-50, 10% pyrethroid by mass.
The mark [14] stands for this setting: Polybutene L-50, 25% pyrethroid by mass.
Setting [15] is: Polybutene L-50, 50% pyrethroid by mass.
[16] abbreviates: Safflower Oil, 10% pyrethroid by mass.
Where [17] appears, read: Safflower Oil, 25% pyrethroid by mass.
The mark [18] stands for this setting: Safflower Oil, 50% pyrethroid by mass.

Regarding `Cc1c(COC(=O)[C@H]2[C@@H](/C=C(/Cl)C(F)(F)F)C2(C)C)cccc1-c1ccccc1` [Bifenthrin Tech., bifenthrin], the “Final Temp. (resulting in full miscibility)” value under setting [1] was 45 °C; the “Final Temp. (resulting in full miscibility)” value under setting [2] turned out to be 57 °C; the “Final Temp. (resulting in full miscibility)” value under setting [3] stood at 74 °C; the “Final Temp. (resulting in full miscibility)” value under setting [4] turned out to be 45 °C; the “Final Temp. (resulting in full miscibility)” value under setting [5] was 41 °C; the “Final Temp. (resulting in full miscibility)” value under setting [6] worked out at 41 °C. Further, the “Final Temp. (resulting in full miscibility)” value was determined as 37 °C under setting [7]; 50 °C under setting [8]; 36 °C under setting [9]; 30 °C under setting [10]; 40 °C under setting [11]; 43 °C under setting [12]. The “Final Temp. (resulting in full miscibility)” value was 37 °C under setting [13]; 35 °C under setting [14]; 43 °C under setting [15]; 80 °C under setting [16]; 80 °C under setting [17]; 80 °C under setting [18]. For the same compound, under “over a range of concentrations”, the “solubility and stability in polybutene L-14” value is “soluble and stable”.
As to `CC1(C)C(C=C(Cl)Cl)C1C(=O)OCc1cccc(Oc2ccccc2)c1` (stereo not shown) [Permethrin Tech., permethrin], the “Final Temp. (resulting in full miscibility)” value came to 26 °C under setting [1]; 27 °C under setting [2]; 30 °C under setting [3]; 29 °C under setting [4]; 33 °C under setting [5]; 50 °C under setting [6]. The “Final Temp. (resulting in full miscibility)” value turned out to be 51 °C under setting [7]; 54 °C under setting [8]; 62 °C under setting [9]; 26 °C under setting [10]; 28 °C under setting [11]; 31 °C under setting [12]. Also, the “Final Temp. (resulting in full miscibility)” value worked out at 35 °C under setting [13]; 51 °C under setting [14]; 54 °C under setting [15]; 80 °C under setting [16]; 80 °C under setting [17]; 80 °C under setting [18].
